Data as given in ChEMBL document CHEMBL3885861, “Open TG-GATES”.

Species on record: Rattus norvegicus
Test: Open TG-GATES - Regimen: Daily Repeat
Type: toxicity, organism-based, Sprague-Dawley
Set-up: regimen Daily Repeat, gender Male, age 6 weeks
Details: in vivo, po, 3 mg/kg, […], route gavage, dose level Low; for KIDNEY_L / KIDNEY_R / KIDNEY_TOTAL: tissue Kidney; for LIVER: tissue Liver; for A/G / ALP / ALT / AST / BUN / CRE / Ca / Cl / DBIL / GLC / IP / K / LDH / Na / PL / RALB / TBIL / TC / TG / TP / gamma-GTP: tissue Plasma

Cn1cnc([N+](=O)[O-])c1Sc1ncnc2nc[nH]c12 [AZATHIOPRINE]
Lym (tissue Blood, time 28 day): 84.6% | MCH (tissue Blood, time 28 day): 19.4 pg | MCHC (tissue Blood, time 28 day): 34.4% | MCV (tissue Blood, time 28 day): 56.4 fL | Mono (tissue Blood, time 28 day): 1.6% | Neu (tissue Blood, time 28 day): 12% | PT (tissue Blood, time 28 day): 16.5 s | Plat (tissue Blood, time 28 day): 116.9 x10_4/uL | RBC (tissue Blood, time 28 day): 749.8 x10_4/ul | Ret (tissue Blood, time 28 day): 2.7% | WBC (tissue Blood, time 28 day): 116.8 x10_2/uL | KIDNEY_L (time 7 day): 1 g | KIDNEY_R (time 7 day): 1 g | KIDNEY_TOTAL (time 7 day): 2 g | KIDNEY_L (time 14 day): 1.1 g | KIDNEY_R (time 14 day): 1.1 g | KIDNEY_TOTAL (time 14 day): 2.2 g | KIDNEY_L (time 28 day): 1.3 g | KIDNEY_R (time 28 day): 1.3 g | KIDNEY_TOTAL (time 28 day): 2.5 g | LIVER (time 7 day): 10.6 g | LIVER (time 14 day): 11.4 g | LIVER (time 28 day): 14.1 g | A/G (time 7 day): 1.2 | ALP (time 7 day): 1762.2 IU/L | ALT (time 7 day): 44.2 IU/L | AST (time 7 day): 71.2 IU/L | BUN (time 7 day): 19.8 mg/dL | CRE (time 7 day): 0.1 mg/dL | Ca (time 7 day): 10.5 mg/dL | Cl (time 7 day): 107.6 meq/L | DBIL (time 7 day): 0 mg/dL | GLC (time 7 day): 201 mg/dL | IP (time 7 day): 7 mg/dL | K (time 7 day): 4.1 meq/L | LDH (time 7 day): 232 IU/L | Na (time 7 day): 143.2 meq/L | PL (time 7 day): 151.2 mg/dL | RALB (time 7 day): 3.1 g/dL | TBIL (time 7 day): 0.006 mg/dL | TC (time 7 day): 74.8 mg/dL | TG (time 7 day): 117.4 mg/dL | TP (time 7 day): 5.7 g/dL | gamma-GTP (time 7 day): 1.2 IU/L | A/G (time 14 day): 1.1 | ALP (time 14 day): 1472 IU/L | ALT (time 14 day): 34.6 IU/L | AST (time 14 day): 61.4 IU/L | BUN (time 14 day): 17.4 mg/dL | CRE (time 14 day): 0.2 mg/dL | Ca (time 14 day): 10.7 mg/dL | Cl (time 14 day): 108 meq/L | DBIL (time 14 day): 0 mg/dL | GLC (time 14 day): 185.4 mg/dL | IP (time 14 day): 6.1 mg/dL | K (time 14 day): 4.2 meq/L | LDH (time 14 day): 145 IU/L | Na (time 14 day): 143.8 meq/L | PL (time 14 day): 143.2 mg/dL | RALB (time 14 day): 3.1 g/dL | TBIL (time 14 day): 0.006 mg/dL | TC (time 14 day): 74.2 mg/dL | TG (time 14 day): 116.2 mg/dL | TP (time 14 day): 5.9 g/dL | gamma-GTP (time 14 day): 1 IU/L | A/G (time 28 day): 1.1 | ALP (time 28 day): 1129.8 IU/L | ALT (time 28 day): 46.2 IU/L | AST (time 28 day): 71.2 IU/L | BUN (time 28 day): 19.2 mg/dL | CRE (time 28 day): 0.2 mg/dL | Ca (time 28 day): 10.6 mg/dL | Cl (time 28 day): 107.8 meq/L | DBIL (time 28 day): 0.002 mg/dL | GLC (time 28 day): 185 mg/dL | IP (time 28 day): 5.6 mg/dL | K (time 28 day): 3.9 meq/L | LDH (time 28 day): 181 IU/L | Na (time 28 day): 141.8 meq/L | PL (time 28 day): 156.8 mg/dL | RALB (time 28 day): 3.2 g/dL | TBIL (time 28 day): 0.01 mg/dL | TC (time 28 day): 79 mg/dL | TG (time 28 day): 110.6 mg/dL | TP (time 28 day): 6.1 g/dL | gamma-GTP (time 28 day): 1.2 IU/L
